Laboratory results reported in paper PMC10386514, “Cyclodextrin’s Effect on Permeability and Partition of Nortriptyline Hydrochloride” (Pharmaceuticals, 2023).
Where a name gives a salt, the structure may show the parent alone. Read-outs that look alike come from different tables or passages of the source.

Key:
[1] = set-up: method as in doi:10.1016/j.molliq.2022.120801; conditions: RC vs PP; cited from earlier work
[2] = 37 °C
Description: The ∆logD parameter of Seiler was calculated for a single CD concentration in the aqueous phase, equal to 0.0115 M for both HP-β-CD and SBE-β-CD, as follows:(2) ΔlogD=logDappoct/buf−logDapphex/buf

[3] = cited from earlier work
[4] = RC vs PP, no CD
Description: The permeability coefficients of NTT•HCl were determined in the absence and in the presence of cyclodextrins (HP-β-CD and SBE-β-CD) in the donor solution. A model artificial regenerated cellulose membrane MWCO 12–14 kDa (Standard Grade RC Dialysis Membrane, Flat Width 45 mm) (RC) or a biomimetic PermeaPad barrier (PHABIOC, Germany, www.permeapad.com (accessed on 1 February 2023)) (PP) were placed between the donor and receptor compartments of a vertical type Franz diffusion cell (PermeGear, Inc., Hellertown, PA, USA) with 7 mL/1 mL volumes for the donor and acceptor solutions. The cyclodextrin concentrations were 0.0115 M, 0.025 M and 0.035 M when the RC membrane was used and only 0.035 M in case of the PP barrier. Two different pH values (pH of 4.0 and pH of 6.8) were applied in the donor solution, whereas the receptor chamber was filled with a buffer with a pH of 7.4, modeling the compound’s diffusion to the blood plasma in all the experiments. […] Samples with a volume of 0.5 mL for the receptor solution were withdrawn every 30 min for 5 h and analyzed with a spectrophotometer (Spectramax 190; Molecular Devices Corporation, San Jose, CA, USA) in 96-well UV black plates (Costar, Washington, DC, USA) at a wavelength of 239 nm.
The permeability coefficient was calculated using the NTT•HCl concentration in the donor solution (C0), as follows:(7) Papp=J/C0

[5] = Text: To this end, the phase distribution approach fully described in [17] was applied. […] It is evident that, in the presence of cyclodextrins, the distribution coefficient of the compound can be described by the following equation:(3) DappOrg/(buf+CD)=C2Org(drug)/C2buf(drug)+C2buf(drug•CD) where DappOrg/(buf+CD) is the distribution coefficient of the drug in the presence of CD, C2Org and C2buf are the drug concentrations in the organic and aqueous phases, respectively, and C2buf(drug•CD) is the concentration of the drug/cyclodextrin complex in the aqueous phase of the distribution system. As follows from Equation (3), the association constant of the complex can be derived from DappOrg/buf and DappOrg/(buf+CD) at specific CD concentrations using Equation (4). (4) DappOrg/(buf+CD)/DappOrg/buf=1+KC⋅CCD
It can be performed by plotting the following dependence:(5) log(DappOrg/buf−DappOrg/(buf+CD)/DappOrg/buf)=log(KC)+α⋅log(CCD)

[6] = human epidermis, buffer pH of 7.4; cited from earlier work
[7] = for distribution coefficient lower than that of AMT•HCl: AMT•HCl values from ref 14; for distribution coefficient higher at buffer pH of 6.8 than at pH of 4.0: no CD; for Dapp hex/buf / Dapp oct/buf / logDapp hex/buf / logDapp oct/buf: 37 °C
Description: The apparent distribution coefficients of NTT•HCl ( DappOrg/buf ) in the 1-octanol/buffer ( Dappoct/buf ) and n-hexane/buffer ( Dapphex/buf ) systems were measured at 37 °C via the standard shake-flask method using mutually saturated organic and aqueous solvents, as reported in our earlier studies. The experimental procedure was partially modified in the case of cyclodextrins (both HP-β-CD and SBE-β-CD) in the aqueous phase of the distribution system. Following the respective literature, in the present study, we prepared 1-octanol or n-hexane saturated with a buffer and a buffer saturated with 1-octanol and n-hexane. Three cyclodextrin concentrations (0.0115 M, 0.025 M and 0.035 M) in the aqueous phase were introduced. For the 1-octanol/buffer distribution, the examined solution of NTT•HCl was prepared in 1-octanol saturated with a buffer (C ~ 2 × 10^−3 M), whereas for the n-hexane/buffer system, it was prepared in a buffer saturated with n-hexane (C ~ 2 × 10^−3 M). Taking into account the obtained values of NTT•HCl solubility in the organic solvents and aqueous buffers, equal volumes of the 1-octanolic and buffer phases were prepared, whereas the n-hexane/buffer ratio was 12:2. Two pH values of the aqueous phases were examined: a pH of 4.0 and a pH of 6.8, simulating different segments of the gastro-intestinal tract. The respective volumes of the phases were placed into glass vials and equilibrated in an air thermostat for 3 days at 37 °C. Then, the phases were separated after at least 6 h of storage. The concentrations in both phases were measured using a UV–Vis spectrophotometer (Cary-50, USA Cary-50 Varian, Palo Alto, CA, USA, Software Version 3.00 (339)) with the help of the calibration curves. Each distribution test was carried out at least three times.
The distribution coefficients ( DappOrg/buf ) were determined, taking into account the compound concentrations in the organic ( C2Org ) and buffer ( C2buf ) phases and the volumes of the buffer ( Vbuf ) and organic ( VOrg ) phases:(1) DappOrg/buf=C2Org⋅V^buf/C2buf⋅V^Org

[8] = epidermis (ref 18) vs PermeaPad, no CD

CN(C)CCC=C1c2ccccc2CCc2ccccc21.Cl [AMT•HCl, amitryptiline hydrochloride]
difference between the coefficients of permeability through the PP and RC [1]: 4.0 fold

CNCCC=C1c2ccccc2CCc2ccccc21 [NTT•HCl, Nortriptyline hydrochloride]
∆logD ([2]; pH 4.0, 0.0115 M HP-β-CD): 1.82
∆logD ([2]; pH 4.0, 0.0115 M SBE-β-CD): 1.79
∆logD ([2]; pH 4.0, no CD): 2.85
∆logD ([2]; pH 6.8, 0.0115 M HP-β-CD): 2.48
∆logD ([2]; pH 6.8, 0.0115 M SBE-β-CD): 2.23
∆logD ([2]; pH 6.8, no CD): 2.76
pKa [3]: 9.23
difference between the coefficients of permeability through the PP and RC [4]: 1.6 fold
KC, association constant of the NTT•HCl/cyclodextrin complex ([5]; HP-β-CD, aqueous phase pH of 4.0, 37 °C): 1.13 ± 0.02 M⁻¹
KC, association constant of the NTT•HCl/cyclodextrin complex ([5]; HP-β-CD, aqueous phase pH of 6.8, 37 °C): 2.01 ± 0.05 M⁻¹
KC, association constant of the NTT•HCl/cyclodextrin complex ([5]; SBE-β-CD, aqueous phase pH of 4.0, 37 °C): 1.14 ± 0.02 M⁻¹
KC, association constant of the NTT•HCl/cyclodextrin complex ([5]; SBE-β-CD, aqueous phase pH of 6.8, 37 °C): 2.24 ± 0.03 M⁻¹
coefficient of permeability through epidermis [6]: 0.36 × 10^−6
distribution coefficient lower than that of AMT•HCl ([7]; 1-octanol/buffer pH of 4.0): 7 fold
distribution coefficient lower than that of AMT•HCl ([7]; 1-octanol/buffer pH of 6.8): 13 fold
distribution coefficient higher at buffer pH of 6.8 than at pH of 4.0 ([7]; 1-octanol/buffer): 1.33 fold
distribution coefficient higher at buffer pH of 6.8 than at pH of 4.0 ([7]; n-hexane/buffer): 1.61 fold
Dapp hex/buf ([7]; pH 4.0, 0.0115 M HP-β-CD): (4.6 ± 0.1) × 10^−3
Dapp oct/buf ([7]; pH 4.0, 0.0115 M HP-β-CD): 0.299 ± 0.008
logDapp hex/buf ([7]; pH 4.0, 0.0115 M HP-β-CD): −2.34
logDapp oct/buf ([7]; pH 4.0, 0.0115 M HP-β-CD): −0.52
Dapp hex/buf ([7]; pH 4.0, 0.0115 M SBE-β-CD): (3.3 ± 0.1) × 10^−3
Dapp oct/buf ([7]; pH 4.0, 0.0115 M SBE-β-CD): 0.204 ± 0.005
logDapp hex/buf ([7]; pH 4.0, 0.0115 M SBE-β-CD): −2.48
logDapp oct/buf ([7]; pH 4.0, 0.0115 M SBE-β-CD): −0.69
Dapp oct/buf ([7]; pH 4.0, 0.025 M HP-β-CD): 0.154 ± 0.003
logDapp oct/buf ([7]; pH 4.0, 0.025 M HP-β-CD): −0.81
Dapp oct/buf ([7]; pH 4.0, 0.025 M SBE-β-CD): 0.086 ± 0.001
logDapp oct/buf ([7]; pH 4.0, 0.025 M SBE-β-CD): −1.07
Dapp oct/buf ([7]; pH 4.0, 0.035 M HP-β-CD): 0.101 ± 0.001
logDapp oct/buf ([7]; pH 4.0, 0.035 M HP-β-CD): −1.0
Dapp oct/buf ([7]; pH 4.0, 0.035 M SBE-β-CD): 0.013 ± 0.000
logDapp oct/buf ([7]; pH 4.0, 0.035 M SBE-β-CD): −1.89
Dapp hex/buf ([7]; pH 4.0, no CD): (5.6 ± 0.2) × 10^−3
Dapp oct/buf ([7]; pH 4.0, no CD): 4.159 ± 0.080
logDapp hex/buf ([7]; pH 4.0, no CD): −2.23
logDapp oct/buf ([7]; pH 4.0, no CD): 0.62
Dapp hex/buf ([7]; pH 6.8, 0.0115 M HP-β-CD): (8.7 ± 0.1) × 10^−3
Dapp oct/buf ([7]; pH 6.8, 0.0115 M HP-β-CD): 2.613 ± 0.022
logDapp hex/buf ([7]; pH 6.8, 0.0115 M HP-β-CD): −2.06
logDapp oct/buf ([7]; pH 6.8, 0.0115 M HP-β-CD): 0.42
Dapp hex/buf ([7]; pH 6.8, 0.0115 M SBE-β-CD): (8.6 ± 0.3) × 10^−3
Dapp oct/buf ([7]; pH 6.8, 0.0115 M SBE-β-CD): 1.443 ± 0.040
logDapp hex/buf ([7]; pH 6.8, 0.0115 M SBE-β-CD): −2.07
logDapp oct/buf ([7]; pH 6.8, 0.0115 M SBE-β-CD): 0.16
Dapp oct/buf ([7]; pH 6.8, 0.025 M HP-β-CD): 1.993 ± 0.030
logDapp oct/buf ([7]; pH 6.8, 0.025 M HP-β-CD): 0.30
Dapp oct/buf ([7]; pH 6.8, 0.025 M SBE-β-CD): 0.364 ± 0.011
logDapp oct/buf ([7]; pH 6.8, 0.025 M SBE-β-CD): −0.44
Dapp oct/buf ([7]; pH 6.8, 0.035 M HP-β-CD): 1.395 ± 0.025
logDapp oct/buf ([7]; pH 6.8, 0.035 M HP-β-CD): 0.15
Dapp oct/buf ([7]; pH 6.8, 0.035 M SBE-β-CD): 0.227 ± 0.006
logDapp oct/buf ([7]; pH 6.8, 0.035 M SBE-β-CD): −0.64
Dapp hex/buf ([7]; pH 6.8, no CD): (9.5 ± 0.2) × 10^−3
Dapp oct/buf ([7]; pH 6.8, no CD): 5.537 ± 0.111
logDapp hex/buf ([7]; pH 6.8, no CD): −2.02
logDapp oct/buf ([7]; pH 6.8, no CD): 0.74
greater resistance of the epidermis than that of the PermeaPad barrier [8]: 67 fold
